Results from publication PMC4506562 (Chemmedchem, 2014).

Target: T1, hsolAC (human soluble adenylate cyclase) (Homo sapiens, UniProt Q96PN6)
T1 sequence (Q96PN6 1-469): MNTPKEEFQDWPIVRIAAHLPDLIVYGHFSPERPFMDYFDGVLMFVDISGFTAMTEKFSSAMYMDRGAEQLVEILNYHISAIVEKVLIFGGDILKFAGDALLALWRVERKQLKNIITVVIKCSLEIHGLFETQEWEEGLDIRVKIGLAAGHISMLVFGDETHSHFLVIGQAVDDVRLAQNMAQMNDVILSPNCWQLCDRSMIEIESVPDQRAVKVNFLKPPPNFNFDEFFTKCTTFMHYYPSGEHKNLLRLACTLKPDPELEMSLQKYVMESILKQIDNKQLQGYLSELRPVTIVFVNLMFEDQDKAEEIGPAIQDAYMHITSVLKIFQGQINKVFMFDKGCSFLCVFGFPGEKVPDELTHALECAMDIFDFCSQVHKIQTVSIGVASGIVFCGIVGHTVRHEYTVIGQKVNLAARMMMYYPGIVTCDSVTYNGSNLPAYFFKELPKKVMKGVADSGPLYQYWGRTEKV
Experiment: Bridge-It cAMP fluorescence assay
Type: biochemical

IC50: > 1000 µM
Structure (SMILES): Cc1n[nH]cc1-c1ccc(F)cc1 [compound 1, 4-(4-Fluorophenyl)-3-methyl-1H-pyrazole]
